Counter-ions that a name gives are not always drawn.
These compounds were tested against T1, guinea-pig B2 receptor (Cavia porcellus, UniProt O70526) (assay: [3H]-bradykinin binding to guinea-pig ileum membranes). Details: test compound at 10^-6 M; [3H]-bradykinin 120 pM; 50 μg ileum membrane protein; 90 min at 20° C.; read-out: Activity (%): percentage inhibition of the binding of [3H]-bradykinin.
T1 construct: Ileum segments are isolated from male guinea-pigs; tissue Iffa Credo, l'Arbresle, France (supplier of the animals); host or cells: ileum membranes of male Dunkin-Hartley guinea-pigs
T1 sequence (O70526 1-372): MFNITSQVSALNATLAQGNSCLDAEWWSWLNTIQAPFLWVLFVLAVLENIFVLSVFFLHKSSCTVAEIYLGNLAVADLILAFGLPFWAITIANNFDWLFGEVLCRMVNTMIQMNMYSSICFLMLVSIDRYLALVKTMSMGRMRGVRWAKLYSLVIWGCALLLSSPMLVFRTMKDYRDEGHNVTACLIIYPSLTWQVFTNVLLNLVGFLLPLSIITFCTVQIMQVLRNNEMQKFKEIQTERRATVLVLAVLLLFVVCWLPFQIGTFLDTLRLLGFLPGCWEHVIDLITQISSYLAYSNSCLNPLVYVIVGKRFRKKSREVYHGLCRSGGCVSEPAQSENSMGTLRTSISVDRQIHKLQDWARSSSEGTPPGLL
Description: The following pharmacological test is used: Ileum segments are isolated from male guinea-pigs [of the Dunkin-Hartley strain (Iffa Credo, l'Arbresle, France)] and ground in the following TES buffer: TES 25 mM, 1,10-phenanthroline 1 mM (pH 6.8), bacitracin 140 μg/ml, BSA 1 g/l. The membranes are then isolated by centrifugation (18,000 rpm; 20 min; 4° C.). The binding studies are carried out in this TES buffer using [^3 H]-bradykinin (120 pM) and 50 μg of membrane protein per test (final volume 500 μl) with an equilibrium time of 90 min at 20° C. The percentage inhibition of the binding of [^3 H]-bradykinin is then determined in the presence of one of the test compounds according to the invention at a concentration of 10^-6 M.
The results obtained from these tests (shown as "activity") are collated in Table I below with reference to the Examples given in the description.

Row | Structure (SMILES) | inhibition at 1 µM [%]
1 | Cc1cc(C)c2cccc(OCc3c(Cl)ccc(S(=O)(=O)N4CCC[C@H]4C(=O)NCc4cccc(C(=N)N)c4)c3Cl)c2n1 [Example 2, 1-[[3-[(2,4-Dimethylquinolin-8-yl)oxymethyl]-2,4-dichlorophenyl]sulfonyl]-N-[3-(aminoiminomethyl)phenylmethyl]-2(S)-pyrrolidinecarboxamide dihydrochloride] | 100
2 | Cc1cc(C)c2cccc(OCc3c(Cl)ccc(S(=O)(=O)N4CCC[C@H]4C(=O)N(C)Cc4ccc(C(=N)N)cc4)c3Cl)c2n1 [Example 4, 1-[[3-[(2,4-Dimethylquinolin-8-yl)oxymethyl]-2,4-dichlorophenyl]sulfonyl]-N-methyl-N-[4-(aminoiminomethyl)phenylmethyl]-2(S)-pyrrolidinecarboxamide dihydrochloride] | 97.8
3 | Cc1cc(C)c2cccc(OCc3c(Cl)ccc(S(=O)(=O)N4CCC[C@H]4C(=O)NCc4ccc(C(=N)N)cc4)c3Cl)c2n1 [Example 6, 1-[[3-[(2,4-Dimethylquinolin-8-yl)oxymethyl]-2,4-dichlorophenyl]sulfonyl]-N-[4-(aminoiminomethyl)phenylmethyl]-2(S)-pyrrolidinecarboxamide bis(methanesulfonate)] | 100
4 | Cc1ccc2cccc(OCc3c(Cl)ccc(S(=O)(=O)N4CCC[C@H]4C(=O)NCc4ccc(C(=N)N)cc4)c3Cl)c2n1 [Example 8, 1-[[3-[(2-Methylquinolin-8-yl)oxymethyl]-2,4-dichlorophenyl]sulfonyl]-N-[4-(aminoiminomethyl)phenylmethyl]-2(S)-pyrrolidinecarboxamide dihydrochloride] | 96.6
5 | Cc1ccc2cccc(OCc3c(Cl)ccc(S(=O)(=O)N4CCC[C@H]4C(=O)Nc4cccc(C(=N)N)c4)c3Cl)c2n1 [Example 10, 1-[[3-[(2-Methylquinolin-8-yl)oxymethyl]-2,4-dichlorophenyl]sulfonyl]-N-[3-(aminoiminomethyl)phenyl]-2(S)-pyrrolidinecarboxamide dihydrochloride] | 100
6 | Cc1ccc2cccc(OCc3c(Cl)ccc(S(=O)(=O)N4CCC[C@H]4C(=O)N4CCN(C(=O)Cc5ccc(C(=N)N)cc5)CC4)c3Cl)c2n1 [Example 20, 1-[[3-[(2-Methylquinolin-8-yl)oxymethyl]-2,4-dichlorophenyl]sulfonyl]-2(S)-[[4-[2-[4-(aminoiminomethyl)phenyl-1-oxoethyl]piperazin-1-yl]carbonyl]pyrrolidinedihydrochloride] | 100
7 | Cc1ccc2cccc(OCc3c(Cl)ccc(S(=O)(=O)N4CCC[C@H]4C(=O)N4CCN(C(=O)COc5ccc(C(=N)N)cc5)CC4)c3Cl)c2n1 [Example 22, 1-[[3-[(2-Dimethylquinolin-8-yl)oxymethyl]-2,4-dichlorophenyl]sulfonyl]-2(S)-[4-[2-[4-(aminoiminomethyl)phenoxyl-1-oxoethyl]piperazin-1-yl]carbonyl]pyrrolidine dihydrochloride] | 100
8 | Cc1ccc2cccc(OCc3c(Cl)ccc(S(=O)(=O)N4CCC[C@H]4C(=O)NC4CCN(C(=O)c5ccc(C(=N)N)cc5)CC4)c3Cl)c2n1 [Example 24] | 98.9
9 | Cc1cc(C)c2cccc(OCc3c(Cl)ccc(S(=O)(=O)N4CCC[C@H]4C(=O)NC4CCN(C(=O)COc5ccc(C(=N)N)cc5)CC4)c3Cl)c2n1 [Example 28] | 98
10 | Cc1cc(C)c2cccc(OCc3c(Cl)ccc(S(=O)(=O)N4CCC[C@H]4C(=O)NCC4CCN(C(=O)COc5ccc(C(=N)N)cc5)CC4)c3Cl)c2n1 [Example 30, 1-[[3-[(2,4-Dimethylquinolin-8-yl)oxymethyl]-2,4-dichlorophenyl]sulfonyl]-N-[[1-[2-[4-(aminoiminomethyl)phenoxy]-1-oxoethyl]piperidin-4-yl]methyl]-2(S)-pyrrolidinecarboxamide bis(methanesulfonate)] | 99.3

Other lines, results leading:

Row | inhibition at 1 µM [%] | Structure (SMILES)
11 | 99.3 | Cc1cc(C)c2cccc(OCc3c(Cl)ccc(S(=O)(=O)N4CCC[C@H]4C(=O)N4CCN(C(=O)c5ccc(C(=N)N)cc5)CC4)c3Cl)c2n1 [Example 12, 1-[[3-[(2,4-Dimethylquinolin-8-yl)oxymethyl]-2,4-dichlorophenyl]sulfonyl]-2(S)-[[4-[4-(aminoiminomethyl)benzoyl]piperazin-1-yl]carbonyl]pyrrolidine dihydrochloride]
12 | 100 | Cc1cc(C)c2cccc(OCc3c(Cl)ccc(S(=O)(=O)N4CCC[C@H]4C(=O)N4CCN(C(=O)Cc5ccc(C(=N)N)cc5)CC4)c3Cl)c2n1 [Example 14, 1-[[3-[(2,4-Dimethylquinolin-8-yl)oxymethyl]-2,4-dichlorophenyl]sulfonyl]-(S)-[[4-[2-[4-(aminoiminomethyl)phenyl]-1-oxoethyl]piperazin-1-yl]carbonyl]pyrrolidine dihydrochloride]
13 | 100 | Cc1cc(C)c2cccc(OCc3c(Cl)ccc(S(=O)(=O)N4CCC[C@H]4C(=O)N4CCN(C(=O)COc5ccc(C(=N)N)cc5)CC4)c3Cl)c2n1 [Example 16, 1-[[3-[(2,4-Dimethylquinolin-8-yl)oxymethyl]-2,4-dichlorophenyl]sulfonyl]-2(S)-[[4-[2-[4-(aminoiminomethyl)phenoxyl]-1-oxoethyl]piperazin-1-yl]carbonyl]pyrrolidine dihydrochloride]
14 | 100 | Cc1ccc2cccc(OCc3c(Cl)ccc(S(=O)(=O)N4CCC[C@H]4C(=O)N4CCN(C(=O)c5ccc(C(=N)N)cc5)CC4)c3Cl)c2n1 [Example 18, 1-[[3-[(2-Methylquinolin-8-yl)oxymethyl]-2,4-dichlorophenyl]sulfonyl]-2(S)-[[4-[4-(aminoiminomethyl)benzoyl]piperazin-1-yl]carbonyl]pyrrolidine dihydrochloride]
15 | 100 | Cc1cc(C)c2cccc(OCc3c(Cl)ccc(S(=O)(=O)N4CCC[C@H]4C(=O)NC4CCN(C(=O)c5ccc(C(=N)N)cc5)CC4)c3Cl)c2n1 [Example 26, 1-[[3-[(2,4-Dimethylquinolin-8-yl)oxymethyl]-2,4-dichlorophenyl]sulfonyl]-N-[1-[4-(aminoiminomethyl)benzoyl]piperidin-4-yl]-2(S)-pyrrolidinecarboxamide bis(methanesulfonate)]

Reference: patent US6071917A, “N-benzenesulphonyl-L-proline derivatives as bradykinin B2 antagonists” (Fournier Industrie Et Sante, priority 1996, dated 2000)
